The text below walks through data of BindingDB's records for patent US10961236 (Astrazeneca, 2021).

The test deals with T1, Phosphatidylinositol 4,5-bisphosphate 3-kinase catalytic subunit gamma isoform [144-1102] (Homo sapiens, UniProt P48736).
T1 construct: 144-1102
Nature of the test: Enzymatic Activity Assay. The method, then:
Routinely, inhibitors were pre-incubated with 3 μl of enzyme for 15 min prior to the addition of 2 μl substrate mixture for a further 60 min enzyme reaction. The phosphorylation was stopped with the addition of 3 μl ADP-Glo reagent (stop solution) followed by a 40 min incubation. Prior to detection 6 μl of ADP-Glo Kinase Detection Reagent was added and the plates were read in a micro plate reader using a Luminescence filter. All additions were followed by a short centrifugation step.

T1 sequence (P48736 144-1102): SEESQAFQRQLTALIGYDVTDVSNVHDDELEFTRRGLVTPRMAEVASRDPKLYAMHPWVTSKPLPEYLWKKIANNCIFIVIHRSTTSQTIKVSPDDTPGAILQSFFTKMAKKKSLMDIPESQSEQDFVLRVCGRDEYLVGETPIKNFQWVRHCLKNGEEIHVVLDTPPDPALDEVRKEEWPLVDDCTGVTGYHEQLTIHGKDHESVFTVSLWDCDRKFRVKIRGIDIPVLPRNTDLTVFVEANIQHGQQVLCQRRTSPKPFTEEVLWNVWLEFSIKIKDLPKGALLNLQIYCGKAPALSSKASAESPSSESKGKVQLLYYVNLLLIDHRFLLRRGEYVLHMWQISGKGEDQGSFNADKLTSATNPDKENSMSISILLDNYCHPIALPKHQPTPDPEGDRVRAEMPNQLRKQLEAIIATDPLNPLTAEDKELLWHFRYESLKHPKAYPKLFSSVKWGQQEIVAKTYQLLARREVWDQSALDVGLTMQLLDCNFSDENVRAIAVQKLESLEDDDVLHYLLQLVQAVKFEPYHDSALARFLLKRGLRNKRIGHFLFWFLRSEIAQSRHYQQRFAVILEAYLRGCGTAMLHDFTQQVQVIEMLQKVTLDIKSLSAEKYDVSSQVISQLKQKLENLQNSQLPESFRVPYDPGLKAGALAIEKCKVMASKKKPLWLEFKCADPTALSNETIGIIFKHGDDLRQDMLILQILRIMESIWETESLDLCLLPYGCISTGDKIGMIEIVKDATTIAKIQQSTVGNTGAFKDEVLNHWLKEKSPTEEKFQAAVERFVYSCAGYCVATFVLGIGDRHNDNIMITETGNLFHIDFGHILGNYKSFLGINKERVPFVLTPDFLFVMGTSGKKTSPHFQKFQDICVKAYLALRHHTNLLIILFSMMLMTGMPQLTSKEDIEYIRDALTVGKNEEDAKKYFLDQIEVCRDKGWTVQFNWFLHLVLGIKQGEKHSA

What is called IC50 is the concentration needed to halve the response being measured. Compound `CC[C@H](C)N1Cc2cc(-c3sc(Nc4cccc(N5CCCOC5=O)n4)nc3C)cc(S(=O)(=O)NC)c2C1=O` [US10961236, Example 61] registered an IC50 of 1 nM. This counts as single-digit nanomolar.
